Source: ChEMBL document CHEMBL5532750, “Small molecule targeted therapies for endometrial cancer: progress, challenges, and opportunities” (RSC Med Chem, 2024)

What was measured:
[1] = tested on: Ishikawa; assay: Anticancer activity against human Ishikawa cells assessed as cell mortality rate at 600 uM measured after 48 hrs by MTT assay relative to control; assay type: functional
[2] = tested on: Ishikawa; assay: Antiproliferative activity against human Ishikawa cells assessed as reduction in cell viability; assay type: functional, cell-based
[3] = tested on: Ishikawa; assay: Antiproliferative activity against human Ishikawa cells assessed as combination index at 0.5 mM incubated for 48 hrs in presence of paclitaxel by MTT assay; assay type: functional
[4] = tested on: ECC-1; assay: Antiproliferative activity against human ECC-1 cells assessed as combination index at 0.5 mM incubated for 48 hrs in presence of paclitaxel by MTT assay; assay type: functional
[5] = tested on: Ishikawa; assay: Antiproliferative activity against human Ishikawa cells assessed as combination index incubated for 48 hrs in presence of Metformin by MTT assay; assay type: functional
[6] = tested on: ECC-1; assay: Antiproliferative activity against human ECC-1 cells assessed as reduction in cell viability; assay type: functional, cell-based
[7] = tested on: ECC-1; assay: Antiproliferative activity against human ECC-1 cells assessed as combination index incubated for 48 hrs in presence of Metformin by MTT assay; assay type: functional
[8] = tested on: Ishikawa; assay: Anticancer activity against human Ishikawa cells assessed as cell mortality rate at 100 uM measured after 48 hrs by MTT assay relative to control; assay type: functional
[9] = tested on: HEC-1B cell line; assay: Induction of apoptosis in human HEC-1B cell line assessed as fold change incubated for 48 hrs; assay type: functional
[10] = tested on: RL95-2; assay: Induction of apoptosis in human RL95-2 cells assessed as fold change incubated for 48 hrs; assay type: functional
[11] = tested on: Ishikawa; assay: Induction of apoptosis in human Ishikawa cell line assessed as fold change incubated for 48 hrs; assay type: functional
[12] = tested on: SPEC-2; assay: Induction of cell death in human SPEC-2 cells assessed as increase in caspase-9 by measuring fold change using […] as substrate at 5 uM incubated for 24 hrs followed by substrate addition and measured after 30 mins by ELISA analysis; assay type: functional; conditions: time 1470 min, 24.5 h
[13] = tested on: USPC-ARK-1; assay: Induction of cell death in human USPC-ARK-1 cells assessed as increase in ROS level at 5 uM incubated for 24 hrs by DCFH-DA based microplate reader analysis relative to control; assay type: functional
[14] = tested on: USPC-ARK-1; assay: Induction of cell death in human USPC-ARK-1 cells assessed as increase in cleaved caspase-3 by measuring fold change using Ac-DEVD-AMC as substrate at 5 uM incubated for 24 hrs followed by substrate addition and measured after 30 mins by ELISA analysis; assay type: functional; conditions: time 1470 min, 24.5 h
[15] = tested on: SPEC-2; assay: Inhibition of cell invasion in serum-starved human SPEC-2 cells at 0.05 to 5 uM incubated for 3.5 hrs by calcein AM staining based plate reader analysis relative to control; assay type: functional; conditions: dose 0.05-5 µM
[16] = tested on: SPEC-2; assay: Antiproliferative activity against human SPEC-2 cells assessed as reduction in cell viability incubated for 72 hrs by MTT assay; assay type: functional, cell-based; conditions: SPEC-2, 72 h
[17] = tested on: USPC-ARK-1; assay: Antiproliferative activity against human USPC-ARK-1 cells assessed as reduction in cell viability incubated for 72 hrs by MTT assay; assay type: functional, cell-based; conditions: USPC-ARK-1, 72 h
[18] = tested on: USPC-ARK-1; assay: Induction of cell death in human USPC-ARK-1 cells assessed as increase in caspase-9 by measuring fold change using […] as substrate at 5 uM incubated for 24 hrs followed by substrate addition and measured after 30 mins by ELISA analysis; assay type: functional; conditions: time 1470 min, 24.5 h
[19] = tested on: SPEC-2; assay: Induction of cell death in human SPEC-2 cells assessed as increase in cleaved caspase-3 by measuring fold change using Ac-DEVD-AMC as substrate at 5 uM incubated for 24 hrs followed by substrate addition and measured after 30 mins by ELISA analysis; assay type: functional; conditions: time 1470 min, 24.5 h
[20] = tested on: USPC-ARK-1; assay: Induction of apoptosis in human USPC-ARK-1 cells assessed as decrease in mitochondrial membrane potential at 5 uM incubated for 8 hrs by JC-1 fluorescent probe based plate reader analysis; assay type: functional; design: scale not given: the % may be the effect or the level left
[21] = tested on: USPC-ARK-1; assay: Inhibition of cell invasion in serum-starved human USPC-ARK-1 cells at 0.05 to 5 uM incubated for 3.5 hrs by calcein AM staining based plate reader analysis relative to control; assay type: functional; conditions: dose 0.05-5 µM
[22] = tested on: SPEC-2; assay: Induction of apoptosis in human SPEC-2 cells assessed as decrease in mitochondrial membrane potential at 5 uM incubated for 8 hrs by JC-1 fluorescent probe based plate reader analysis; assay type: functional; design: scale not given: the % may be the effect or the level left
[23] = tested on: Ishikawa; assay: Antitumor activity against human Ishikawa cells xenografted in LKB1fl/flp53fl/fl mouse assessed as tumor growth inhibition (reference value: 68 %); assay type: functional
[24] = tested on: ECC-1; assay: Antitumor activity against human ECC-1 cells xenografted in LKB1fl/flp53fl/fl mouse assessed as tumor growth inhibition (reference value: 68 %); assay type: functional
[25] = tested on: SPEC-2; assay: Induction of cell death in human SPEC-2 cells assessed as increase in ROS level at 5 uM incubated for 24 hrs by DCFH-DA based microplate reader analysis relative to control; assay type: functional
[26] = tested on: Ishikawa; assay: Antiproliferative activity against human Ishikawa cells assessed as inhibition of VEGF secretion measured after 24 hrs by ELISA assay; assay type: functional, cell-based
[27] = tested on: Ishikawa; assay: Anticancer activity against human Ishikawa cells assessed as cell mortality rate at 100 uM measured after 24 hrs by MTT assay relative to control; assay type: functional
[28] = tested on: HEC-1B cell line; assay: Antiproliferative activity against human HEC-1B cell line assessed as reduction in cell viability

Compound: OB(O)c1ccc(/C=N/c2ccc(-c3ccc(/N=C/c4ccc(B(O)O)cc4)cc3)cc2)cc1
- Activity [1]: 14%

Compound: O=c1[nH]cc(F)c(=O)[nH]1 [FLUOROURACIL]
- IC50 [2]: > 100 µM

Compound: CN(C)C(=N)NC(=N)N [METFORMIN]
- CI [3]: <1
- CI [4]: <1

Compound: CC(=O)O[C@H]1C(=O)[C@@]2(C)[C@H]([C@H](OC(=O)c3ccccc3)[C@]3(O)C[C@H](OC(=O)[C@H](O)[C@@H](NC(=O)c4ccccc4)c4ccccc4)C(C)=C1C3(C)C)[C@]1(OC(C)=O)CO[C@@H]1C[C@@H]2O [PACLITAXEL]
- CI [5]: <1
- IC50 [6]: 0.0001 µM
- IC50 [2]: 0.0005 µM
- CI [7]: <1

Compound: CC(C)CC(/N=C/c1cccc(B(O)O)c1)C(=O)O (stereo not drawn)
- Activity [1]: 88.3%

Compound: OB(O)c1cccc(/C=N/c2ccc(-c3ccc(/N=C/c4cccc(B(O)O)c4)cc3)cc2)c1
- Activity [8]: 84%

Compound: CCC(C)(C)C(=O)O[C@H]1C[C@@H](C)C=C2C=C[C@H](C)[C@H](CC[C@@H]3C[C@@H](O)CC(=O)O3)[C@H]21 [SIMVASTATIN]
- IC50 [6]: ~15 µM
- IC50 [2]: ~17 µM
- fold change (FC) [9]: 88
- fold change (FC) [10]: 354
- fold change (FC) [11]: 127

Compound: O=C1C2=C(CCN(Cc3ccccc3)C2)N2CCN=C2N1Cc1ccc(F)cc1F [ONC-206]
- fold change (FC) [12]: 1.4
- Activity [13]: 83%
- fold change (FC) [14]: 1.7
- inhibition (INH) [15]: 34%
- IC50 [16]: 0.24 µM
- IC50 [17]: 0.33 µM
- fold change (FC) [18]: 1.5
- fold change (FC) [19]: 1.4
- Activity [20]: 16%
- inhibition (INH) [21]: 26.6%
- Activity [22]: 16%
- TGI [23]: 73%
- TGI [24]: 73%
- Activity [25]: 83%

Compound: CCN(CC)CCCOc1ccc(-n2c3c(c4ccccc4c2=O)C(=O)c2ccccc2-3)cc1
- IC50 [26]: 0.00308 µM

Compound: O=C(O)CN=C(/N=C/c1ccc(B(O)O)cc1)/N=C/c1ccc(B(O)O)cc1
- Activity [1]: 18%

Compound: CC(C)CC(/N=C/c1ccc(B(O)O)cc1)C(=O)O (stereo not drawn)
- Activity [1]: 76%

Compound: OB(O)c1ccc(/C=N/c2cccc3cccc(/N=C/c4ccc(B(O)O)cc4)c23)cc1
- Activity [8]: 72%

Compound: O=C(O)c1ccc(C(=O)O)c(/N=C/c2ccc(B(O)O)cc2)c1
- Activity [1]: 72%

Compound: O=C(O)CSC[C@H](/N=C/c1ccc(B(O)O)cc1)C(=O)O
- Activity [8]: 49%
- Activity [27]: 54%

Compound: NC(=O)c1cccc2cn(-c3ccc([C@@H]4CCCNC4)cc3)nc12 [NIRAPARIB]
- IC50 [28]: 0.127 µM
- IC50 [2]: 0.024 µM
